Laboratory results taken from publication PMC11568214, “The impact of 9-azaglycophymine and phenylguanidine derivatives on the proliferation of various breast cancer cell lines in vitro and in vivo” (Scientific Reports, 2024).

What was measured:
[1] = test system: MCF-7, MDA-MB-468, BT-474 and HCC1937 breast cancer cells; assay: Fast screening / CV cell viability, breast cancer cell line panel; type: cell-based, human; parameters: reduction of cell viability: concentration or dose not given beside the values; settings: for anti-proliferative / cytotoxic effect: screening at 1, 10 and 50 µM; for concentration below which active in cytotoxicity screening / reduction of cell viability: initial screening; for IC50: Homo sapiens, read-out: IC50 values (National Cancer Institute guideline criterion); for reduction of cell viability: after 72 h of treatment
Procedure: (§1) For initial testing of the cytotoxic effect of the available glycophymine compounds (Table S2), cells were treated with compound in three concentrations: 1, 10 and 50 µM. Cells were seeded in 96-well plates and allowed to adhere overnight. Then they were treated for 72 h under standard culture conditions. […] For IC50 determination, the compounds were tested at seven concentrations (0.78, 1.56, 3.13, 6.25, 12.5, 25 and 50 µM). Subsequently, the cell viability was determined by using the crystal violet (CV) assay. Moreover, the selected compounds were tested against the mouse breast cancer cell line 4T1 (TNBC) as well. The compounds were prepared initially to obtain a stock solution of 20 mM in DMSO. Later, the working solutions were prepared by mixing the required amount of DMSO stock with the optimal medium for each cell line. The DMSO concentration in the final solution was always maintained lower than 0.5% to avoid any DMSO-derived side effects.
(§2) For CV assays, after 72 h treatment, the treatment medium was discarded from the 96-well plates, and the cells were washed using 50 µL of PBS. Cells were fixed by adding 50 µL of 4% (v/v) paraformaldehyde (PFA) in PBS for 15 min at room temperature (RT). Afterwards, PFA was discarded, and the plates were dried for 15 min at RT. 50 µL of CV working solution (0.1% w/v CV in PBS) were added to the wells, followed by 15 min incubation at RT. Subsequently, the CV solution was discarded, and the plates were washed using aqua bidest. (ddH2O) to remove any remaining CV solution. The plates were left to dry overnight at RT, and then 50 µL of 33% (v/v) acetic acid in ddH2O were added to each well. Finally, the absorbance was measured at 570 nm by using a SpectraMax M5 plate reader (Molecular Devices, California, USA) and at 670 nm as background wavelength. […] Additionally, gefitinib, an approved EGFR inhibitor of the quinazoline family, was tested as anti-proliferative positive control. The data represent the mean ± standard deviation derived from three independent biological replicates. Dose–response curves were generated by four-parametric non-linear regression analysis using the GraphPad Prism software (version: 10.1, San Diego, CA, USA). Based on that, IC50 values and standard deviations were calculated for each replicate individually.

MCF-7 = assay: Crystal violet (CV) cell viability assay, IC50 determination; type: cell-based; settings: Homo sapiens, MCF7, 72 h treatment, mean ± SD
Procedure: as §1, §2

BT-474 = assay: as above; type: cell-based; settings: Homo sapiens, 72 h treatment, mean ± SD
Procedure: as §1, §2

HCC1937 = assay: as above; type: cell-based; settings: Homo sapiens, 72 h treatment, mean ± SD
Procedure: as §1, §2

4T1 = assay: as above; type: cell-based; settings: Mus musculus, 72 h treatment, mean ± SD
Procedure: as §1, §2

MDA-MB-468 = assay: as above; type: cell-based, human; settings: Homo sapiens, MDA-MB-468, 72 h treatment, mean ± SD
Procedure: as §1, §2

HepG2 cell line = test system: HepG2 cell line; parameters: method as in PMID 34237623; settings: read-out: IC50 against the HepG2 cell line; cited from earlier work

Row | IC50 (MCF-7) [µM] | IC50 (BT-474) [µM] | IC50 (HCC1937) [µM] | IC50 (4T1) [µM] | IC50 (MDA-MB-468) [µM] | SMILES | anti-proliferative / cytotoxic effect ([1]; 72 h) | concentration below which active in cytotoxicity screening ([1]; 72 h) | IC50 ([1]; 72 h) [µg/mL] | reduction of cell viability [1] [%] | IC50 (HepG2 cell line) [µM] | cytotoxicity relative to compound 19 ([1]; 72 h, CV assay)
1 | – | – | – | – | – | Nc1ccc2nc(Nc3ccccc3)[nH]c(=O)c2c1 [Compound 49] | completely lack cytotoxic activity | – | – | – | – | –
2 | – | – | – | – | – | COc1cc(C(=O)c2nc3ccccc3c(=O)[nH]2)cc(OC)c1OC [2-(3,4,5-trimethoxybenzoyl)quinazolin-4(3H)-one] | – | – | – | – | 1.22 ± 0.12 | –
3 | – | – | – | – | – | O=c1[nH]c(Nc2ccccc2)nc2ccccc12 [Compound 15, 2-(phenylamino)quinazolin-4(1H)-one] | did not show any cytotoxic effect | – | – | – | – | –
4 | 10 ± 0.5 | 9.9 ± 1.5 | 14.8 ± 3.7 | 23.5 ± 7.2 | 13 ± 0.4 | O=c1[nH]c(Nc2ccc(Cl)cc2)nc2ccccc12 [Compound 22] | significantly reduced cell proliferation | below 10 µM | < 30 | ≥ 50 | – | twofold less
5 | – | – | – | – | – | Nc1ccc2c(=O)[nH]c(Nc3ccccc3)nc2c1 [Compound 48] | completely lack cytotoxic activity | – | – | – | – | –
6 | 6.3 ± 0.4 | 4.5 ± 0.2 | 4.4 ± 0.3 | 12.6 ± 1.2 | 8 ± 0.3 | O=c1[nH]c(Nc2ccccc2)nc2ccc([N+](=O)[O-])cc12 [Compound 47] | significantly reduced cell proliferation | below 10 µM | < 30 | ≥ 50 | – | –
7 | 5.7 ± 0.6 | 4.4 ± 0.1 | 3.9 ± 0.2 | 7.9 ± 0.6 | 6.9 ± 0.2 | O=c1[nH]c(Nc2ccccc2)nc2cc([N+](=O)[O-])ccc12 [Compound 46] | significantly reduced cell proliferation | below 10 µM | < 30 | ≥ 50 | – | –

Row | SMILES | IC50 (MCF-7) [µM] | IC50 (BT-474) [µM] | IC50 (HCC1937) [µM] | IC50 (4T1) [µM] | IC50 (MDA-MB-468) [µM] | anti-proliferative / cytotoxic effect ([1]; 72 h) | concentration below which active in cytotoxicity screening ([1]; 72 h) | IC50 ([1]; 72 h) [µg/mL] | reduction of cell viability [1] [%] | IC50 (HepG2 cell line) [µM] | cytotoxicity relative to compound 19 ([1]; 72 h, CV assay)
8 | O=c1[nH]c(Nc2ccc(Cc3ccc([N+](=O)[O-])cc3[N+](=O)[O-])cc2)nc2ccccc12 [Compound 24] | 10.3 ± 1.3 | 9.7 ± 1.3 | 11 ± 1.9 | 11.3 ± 3.5 | 11.2 ± 1.8 | significantly reduced cell proliferation | below 10 µM | < 30 | ≥ 50 | – | –
